This note sets out measurements from US20260234157A1, “COMPOUND AND METHOD FOR TARGETED DEGRADATION OF ANDROGEN RECEPTOR” (Gan & Lee Pharmaceuticals Co., Ltd., priority 2023, published 2026).

Substitutions are numbered along the chain they refer to. Where two headings read alike, the source gives them in different places.

Type in all cases: cell-based
Experiment [1] has as its target T1, AR protein (Homo sapiens, UniProt P10275, T878A).
T1 construct: degradation activity of the compounds disclosed in the present disclosure on AR protein in LNCaP cells; host or cells: LNCaP FGC
T1 sequence (P10275 1-920 T878A): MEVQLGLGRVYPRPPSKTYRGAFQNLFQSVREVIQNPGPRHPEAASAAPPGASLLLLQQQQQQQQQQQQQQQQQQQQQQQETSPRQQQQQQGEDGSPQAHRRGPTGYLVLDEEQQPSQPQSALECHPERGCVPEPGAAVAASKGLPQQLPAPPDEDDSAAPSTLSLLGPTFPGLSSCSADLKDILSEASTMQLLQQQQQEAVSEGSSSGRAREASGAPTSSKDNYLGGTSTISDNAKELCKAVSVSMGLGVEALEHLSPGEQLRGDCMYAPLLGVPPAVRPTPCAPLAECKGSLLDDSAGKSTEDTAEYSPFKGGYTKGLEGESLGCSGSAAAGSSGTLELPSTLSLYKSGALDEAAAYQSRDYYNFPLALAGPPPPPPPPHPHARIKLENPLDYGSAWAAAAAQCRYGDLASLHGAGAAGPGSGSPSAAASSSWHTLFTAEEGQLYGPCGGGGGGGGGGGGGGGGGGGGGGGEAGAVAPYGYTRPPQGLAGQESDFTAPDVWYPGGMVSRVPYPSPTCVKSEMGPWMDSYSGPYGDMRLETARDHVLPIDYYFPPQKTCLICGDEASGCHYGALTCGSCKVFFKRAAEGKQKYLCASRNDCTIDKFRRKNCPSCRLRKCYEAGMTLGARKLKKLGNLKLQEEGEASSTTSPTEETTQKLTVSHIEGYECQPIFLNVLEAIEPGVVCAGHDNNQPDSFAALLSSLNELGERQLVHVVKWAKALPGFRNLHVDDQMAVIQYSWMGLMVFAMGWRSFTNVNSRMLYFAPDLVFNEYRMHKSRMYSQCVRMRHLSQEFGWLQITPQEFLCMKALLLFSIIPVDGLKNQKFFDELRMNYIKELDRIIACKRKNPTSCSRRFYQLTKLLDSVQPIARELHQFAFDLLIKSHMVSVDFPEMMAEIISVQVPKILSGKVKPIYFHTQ
Description: Degradation of AR protein in LNCaP cells (Western blot). The following applies: for inhibition at 0.01 µM: read-out: Degradation rates of the AR protein in LNCaP cells, 10 nM (%); for inhibition at 0.1 µM: read-out: Degradation rates of the AR protein in LNCaP cells, 100 nM (%). In outline: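 AR assessed by SDS-PAGE/Western blot with infrared imaging; band greyscale normalised to GAPDH gave percent degradation.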
(In general: In western blotting, separated proteins are transferred to a membrane and probed.)

A further experiment deals with LNCaP FGC cells. Briefly: Inhibition of proliferation of LNCaP cells (WST-8). The following applies: Homo sapiens, LNCaP, 96 h. How it is done: The cells were cultured in a cell culture incubator with 5% CO2 at 37° C. overnight. […] On the sixth day, 96 well plates were taken out, and 20 μL of WST-8 (Beytime, C0040) reagent was added to each well.
A further experiment has as its system VCaP cells. Description: Inhibition of proliferation of VCaP cells (WST-8). As to conditions: Homo sapiens, read-out: IC50 for inhibiting the proliferation of VCaP cells. In outline: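 VCaP FGC cells, 15000 per well in DMEM with 10% FBS, were cultured at 37° C, 5% CO2. On day nine, WST-8 reagent was added to read proliferation.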
For orientation: Formazan colour is commonly taken as a measure of viable cells.

The target of experiment [2] is T2, AR protein (Homo sapiens, UniProt P10275).
T2 construct: degradation activity of the compounds disclosed in the present disclosure on AR protein in VCaP cells; host or cells: VCaP
T2 sequence (P10275 1-920): T1 sequence (P10275 1-920 T878A) with A878T
Briefly: Degradation of AR protein in VCaP cells (Western blot). The following applies: 8 hours; for inhibition at 0.01 µM: compound at 10 nM, read-out: Degradation rate of the AR protein in VCaP cells, 10 nM (%); for inhibition at 0.1 µM: compound at 100 nM, read-out: Degradation rate of the AR protein in VCaP cells, 100 nM (%). In outline: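 VCaP cells treated with compound alongside solvent controls for 8 h, then lysed in RIPA and protein quantified by BCA. AR detected by SDS-PAGE/Western blot with infrared imaging. Degradation rate calculated from band grayscale, with GAPDH as internal reference.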

Setting [3] is: LNCaP cells, compound 10 nM, 8 hours, Western blot grayscale, GAPDH internal reference.
The mark [4] stands for this setting: LNCaP cells, compound 100 nM, 8 hours, Western blot grayscale, GAPDH internal reference.
The mark [5] stands for this setting: LNCaP FGC cells, 96 hours, WST-8 absorbance at 450 nm, read-out: IC50 for inhibiting the proliferation of LNCaP cells.
Where [6] appears, read: VCaP cells, 168 hours, WST-8 absorbance at 450 nm.

In the case of `CCC1(CN2CCC3(CC2)COc2c3ccc3c2C(=O)N(C2CCC(=O)NC2=O)C3=O)CCN(c2ccc(C(=O)N[C@H]3CC[C@H](Oc4ccc(C#N)c(C(F)(F)F)c4)CC3)nn2)CC1` (stereo partly drawn) [Compound 248], the inhibition at 0.01 µM on AR protein [1] (setting [3]) was -53%; at AR protein [2] it was 2%. In addition, the inhibition at 0.1 µM is -16% on AR protein [1] (setting [4]) and 17% at AR protein [2]. The IC50 came to 5990 nM with LNCaP FGC cells (setting [5]) and 210 nM with VCaP cells (setting [6]).

Turning to `COc1cc(O[C@H]2C(C)(C)[C@H](NC(=O)c3ccc(N4CCC(CN5CC6(CCc7cc8c(cc7O6)C(=O)N(C6CCC(=O)NC6=O)C8=O)C5)CC4)cc3)C2(C)C)ccc1C#N` (stereo partly drawn) [Compound 277], the inhibition at 0.01 µM on AR protein [1] (setting [3]) worked out at 16%; on AR protein [2], 7%. Besides, the inhibition at 0.1 µM was 60% at AR protein [1] (setting [4]) and 54% at AR protein [2]. The IC50 amounted to 10700 nM in the experiment on LNCaP FGC cells (setting [5]) and 73 nM in the experiment with VCaP cells (setting [6]).

For `CC1(CN2CCC3(CC2)COc2c3ccc3c2C(=O)N(C2CCC(=O)NC2=O)C3=O)CCN(c2ncc(C(=O)NC3CCC(Oc4ccc(C#N)c(Cl)c4)CC3)cn2)CC1` (stereo not drawn) [Compound 245], the inhibition at 0.01 µM at AR protein [1] (setting [3]) is 2%; on AR protein [2], 3%. For the same molecule, the values for the inhibition at 0.1 µM at AR protein [1] (setting [4]) and on AR protein [2] were 45% and 43%, respectively. For the same molecule, the values for the IC50 in the experiment on LNCaP FGC cells (setting [5]) and in the experiment with VCaP cells (setting [6]) were 1820 nM and 100 nM, respectively.

Consider `COc1cc(O[C@H]2C(C)(C)[C@H](NC(=O)c3ccc(N4CCC(C#N)(CN5CCC6(CC5)COc5c6ccc6c5C(=O)N(C5CCC(=O)NC5=O)C6=O)CC4)cc3)C2(C)C)ccc1C#N` (stereo partly drawn) [Compound 207], for which the inhibition at 0.01 µM at AR protein [1] (setting [3]) was 28%; at AR protein [2], -46%. The inhibition at 0.1 µM at AR protein [1] (setting [4]) worked out at 40%; on AR protein [2], 37%. The values for the IC50 with LNCaP FGC cells (setting [5]) and in the experiment with VCaP cells (setting [6]) were 870 nM and 38 nM, respectively.

Regarding `N#Cc1ccc(O[C@H]2CC[C@H](NC(=O)c3ccc(N4CC[C@H](CN5CCC6(CC5)COc5cc7c(cc5C6)C(=O)N(C5CCC(=O)NC5=O)C7=O)C4)nn3)CC2)cc1Cl` (stereo partly drawn) [Compound 74], the values for the inhibition at 0.01 µM at AR protein [1] (setting [3]) and on AR protein [2] were 39% and 47%, respectively. In addition, the inhibition at 0.1 µM worked out at 79% on AR protein [1] (setting [4]) and 65% at AR protein [2]. In addition, the IC50 in the experiment on LNCaP FGC cells (setting [5]) and in the experiment on VCaP cells (setting [6]) was 600 nM in each case.

Consider `COc1cc(OC2C(C)(C)C(NC(=O)c3ccc(N4CCC(CN5CCC6(CC5)COc5cc7c(cc56)C(=O)N(C5CCC(=O)NC5=O)C7=O)CC4)cc3)C2(C)C)ccc1C#N` (stereo not drawn) [Compound 280], for which the inhibition at 0.01 µM was determined as 36% on AR protein [1] (setting [3]) and 15% on AR protein [2]. In addition, the values for the inhibition at 0.1 µM on AR protein [1] (setting [4]) and on AR protein [2] were 52% and 77%, respectively. The results for the IC50 in the experiment with LNCaP FGC cells (setting [5]) and in the experiment with VCaP cells (setting [6]) were 9250 nM and 45 nM, respectively.

Take `COc1cc(O[C@H]2C(C)(C)[C@H](NC(=O)c3ccc(N4CCC(C)(CN5CCC6(CCc7cc8c(cc7O6)CN(C6CCC(=O)NC6=O)C8=O)CC5)CC4)cc3)C2(C)C)ccc1C#N` (stereo partly drawn) [Compound 281]: the inhibition at 0.01 µM on AR protein [1] (setting [3]) is 20%; at AR protein [2], -11%. The inhibition at 0.1 µM is 56% on AR protein [1] (setting [4]) and 60% on AR protein [2]. Also, the IC50 in the experiment with LNCaP FGC cells (setting [5]) is 2140 nM; in the experiment with VCaP cells (setting [6]), 4 nM.

Consider `COc1cc(O[C@H]2C(C)(C)[C@H](NC(=O)c3ccc(N4CCC(C#N)(CN5CCC6(CC5)COc5c6ccc6c5CN(C5CCC(=O)NC5=O)C6=O)CC4)cc3)C2(C)C)ccc1C#N` (stereo partly drawn) [Compound 208], for which the inhibition at 0.01 µM on AR protein [1] (setting [3]) turned out to be 34%; on AR protein [2] it was 17%. In addition, the inhibition at 0.1 µM on AR protein [1] (setting [4]) worked out at 38%; on AR protein [2] it was 67%. Besides, the IC50 in the experiment with LNCaP FGC cells (setting [5]) came out at 10 nM; with VCaP cells (setting [6]), 3.5 nM.

As for `COc1cc(O[C@H]2CC[C@H](NC(=O)c3ccc(N4CCC(CN5CCC6(CC5)COc5c6ccc6c5C(=O)N(C5CCC(=O)NC5=O)C6=O)(OC)CC4)cc3)CC2)ccc1C#N` (stereo partly drawn) [Compound 219], the inhibition at 0.01 µM on AR protein [1] (LNCaP, 8 h) is -40%; on AR protein [2], 11%. Further, the inhibition at 0.1 µM at AR protein [1] (LNCaP, 8 h) came to 21%; at AR protein [2], 70%. For the same molecule, the IC50 stood at 260 nM with LNCaP FGC cells (read-out: IC50 for inhibiting the proliferation of LNCaP cells, LNCaP FGC cells, 96 hours, WST-8 absorbance at 450 nm) and 60 nM with VCaP cells (VCaP, 168 h).

Consider `N#Cc1ccc(O[C@H]2CC[C@H](NC(=O)c3ccc(N4CCC5(CC(N6CCC7(CC6)COc6cc8c(cc6C7)C(=O)N(C6CCC(=O)NC6=O)C8=O)C5)C4)nn3)CC2)cc1Cl` (stereo partly drawn) [Compound 63], for which the inhibition at 0.01 µM is 0% on AR protein [1] (setting [3]) and 67% on AR protein [2]. Also, the inhibition at 0.1 µM on AR protein [1] (setting [4]) amounted to 65%; on AR protein [2], 81%. Moreover, the IC50 was 500 nM with LNCaP FGC cells (setting [5]) and 240 nM in the experiment on VCaP cells (setting [6]).

Take `N#Cc1ccc(O[C@H]2CC[C@H](NC(=O)c3ccc(N4CC5(CC(N6CCC7(CC6)COc6cc8c(cc67)C(=O)N(C6CCC(=O)NC6=O)C8=O)C5)C4)nn3)CC2)cc1Cl` (stereo partly drawn) [Compound 50]: the values for the inhibition at 0.01 µM on AR protein [1] (setting [3]) and on AR protein [2] were 66% and 77%, respectively. Moreover, the values for the inhibition at 0.1 µM on AR protein [1] (setting [4]) and at AR protein [2] were 86% and 88%, respectively. In addition, the IC50 in the experiment on LNCaP FGC cells (setting [5]) stood at 1200 nM; with VCaP cells (setting [6]) it was 28 nM.

In the case of `CCC1(CN2CCC3(CC2)COc2c3ccc3c2CN(C2CCC(=O)NC2=O)C3=O)CCN(c2ccc(C(=O)N[C@H]3CC[C@H](Oc4ccc(C#N)c(Cl)c4)CC3)nn2)CC1` (stereo partly drawn) [Compound 236], the inhibition at 0.01 µM at AR protein [1] (setting [3]) is 44%; on AR protein [2], 37%. Besides, the inhibition at 0.1 µM at AR protein [1] (setting [4]) came to 60%; at AR protein [2] it was 82%. Moreover, the IC50 was 22 nM in the experiment on LNCaP FGC cells (setting [5]) and 1 nM with VCaP cells (setting [6]).
